PubChem BioAssay AID2060625 (Molecular Pharmacology Branch, DTP, NCI, 2025)

Test system: 186277-243-T-J2-PDC spheroids with HUVEC/MSC, viability
Test: Anticancer human tumor 186277-243-T-J2-PDC patient-derived colon adenocarcinoma cell line growth inhibition [CLK]
Settings: for IC50: curve of first compound; for viability, T/C: stronger effect = lower value
Excerpt: A high-throughput screen of multi-cell type tumor spheroids was designed to identify active combinations of […] and targeted small molecules. Complex spheroids include a stromal component modeled by human endothelial cells (HUVEC) and fibroblasts modeled by human mesenchymal stem cells (MSCs). The concentration ranges selected for each drug and investigational agent were based upon clinically achievable concentrations if the clinical Cmax of the agent was known.
Compounds. The drugs and investigational agents: cirtuvivint (SM08502; NSC835563), CC-671 (NSC850746), vemurafenib (NSC761431), tapotoclax (NSC804041), sotorasib (NSC818433), adagrasib (NSC831453), MRTX-1133 (NSC836407), BAY2416964 (NSC825713), copanlisib (NSC816437), inavolisib (NSC800729), abemaciclib (NSC768073), osimertinib (NSC779217), entinostat (NSC756642), eltanexor (KPT-8602, NSC794443), venetoclax (NSC766270), ceralasertib (NSC777638), bortezomib (NSC756655), olaparib (NSC753686), talazoparib (NSC767125), alisertib (NSC759677), peposertib (NSC802822), gemcitabine (NSC613327), 5-fluorouracil (NSC19893), SN-38 (NSC673596), oxaliplatin (NSC266046), paclitaxel (NSC125973), and doxorubicin (NSC123127), were obtained from the National Cancer Institute (NCI) Developmental Therapeutics Program Chemical Repository. The FDA-approved anticancer drug set is available from the Developmental Therapeutics Program at https://dtp.cancer.gov/organization/dscb/obtaining/available plates.htm. […] The stock solutions were prepared in dimethyl sulfoxide (DMSO, Sigma-Aldrich, St. Louis, MO, cat. D2650), except for the platinum complexes which were prepared in saline (Quality Biological, Gaithersburg, MD, cat. 114-055-101), at 800-fold the tested concentration and stored at -70 degrees C prior to their use. All drugs and investigational agents were tested over a range starting from a high concentration at or near the clinical Cmax and decreasing in half-log increments. If the clinical Cmax for an agent had not been determined, the highest concentration tested was 10 microM.
Cell Culture. All cells were maintained in an incubator at 37 degrees C and 5% CO2 with 95% humidity. The PDC lines were cultured according to standard operating procedures established by the NCI PDMR. Briefly, all PDCs were thawed and cultured in Matrigel-coated flasks prepared with a working solution of 1X Ham's F-12 nutrient mix, without supplementation (Invitrogen, Waltham, MA, cat. 11765054), 100 U/mL penicillin-streptomycin (Invitrogen, cat. 15140122), and 2.5% Matrigel (Corning Inc., Corning, NY, cat. 354248) for the first three passages. The 947758-054-R-J2-PDC line was cultured in 6B/Colon 1A media, which includes advanced DMEM/F-12 (Thermo Fisher Scientific, cat. 12634028), 10 mM HEPES (Thermo Fisher Scientific, cat. 15630080), 1X GlutaMAX supplement (Thermo Fisher Scientific, cat. 35050061), 0.1 mg/mL primocin (InvivoGen, cat. ant-pm-2), 10% defined fetal bovine serum, heat inactivated (HyClone Laboratories Inc., cat. SH30070.03HI), 1.25 mM N-Acetyl-L-cysteine (Sigma-Aldrich, cat. A9165), 10 mM nicotinamide (Sigma-Aldrich, cat. N0636), 1X B-27 supplement (Thermo Fisher Scientific, cat. 17504044), 1X N-2 supplement (Thermo Fisher Scientific, cat. 17502048), and 10 microM Y-27632 dihydrochloride (Tocris Bioscience, cat. 1254). The 876862-298-R-J1-PDC was cultured in 6E media, which includes all 6B/Colon 1A media components plus 50% L-WRN conditioned media (ATCC, cat. CRL-3276), 50 ng/mL recombinant human EGF recombinant protein (hEGF; Thermo Fisher Scientific, cat. PHG0311), 10 ng/mL recombinant human fibroblast growth factor 10 (hGFG-10; PeproTech, cat. 100-26), 1 ng/mL recombinant human fibroblast growth factor 2 (hFGF-2; PeproTech, cat. 100-18B), and 1 µM prostaglandin E2 (PGE2; Tocris, cat. 2296). The 227483-062-R1-J1-PDC line was cultured in Panc media, containing all 6E components except hFGF-2, with the addition of 500 nM SB-431542 (Selleckchem, cat. S1067) and 10 nM gastrin (Tocris, cat. 3006). […]
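Note: compound exposure lasted seven days before readout.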
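Throughout, for viability, T/C: 100% = DMSO vehicle control wells.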

NC(=O)C(=Cn1cnc(-c2cc(C(F)(F)F)cc(C(F)(F)F)c2)n1)c1cncnc1 + CN1CCN(c2cc(C(=O)Nc3cc4cc(-c5cnn(C)c5)ccc4cn3)ccn2)CC1
IC50 (second compound 0.0316 µM): 0.127 µM | IC50 (second compound 0.1 µM): 0.039 µM | IC50 (second compound 0.316 µM): < 0.00949 µM | IC50 (second compound 1 µM): < 0.00949 µM | IC50 (second compound 3.16 µM): < 0.00949 µM | IC50 (second compound 10 µM): < 0.00949 µM | viability, T/C (second compound 0.0316 µM, first compound 0.00949 µM): 98.3% | viability, T/C (second compound 0.0316 µM, first compound 0.03 µM): 83.4% | viability, T/C (second compound 0.0316 µM, first compound 0.0949 µM): 65.4% | viability, T/C (second compound 0.0316 µM, first compound 0.3 µM): 5.69% | viability, T/C (second compound 0.0316 µM, first compound 0.949 µM): 1.85% | viability, T/C (second compound 0.0316 µM, first compound 3 µM): 2.91% | viability, T/C (second compound 0.1 µM, first compound 0.00949 µM): 61.6% | viability, T/C (second compound 0.1 µM, first compound 0.03 µM): 60.9% | viability, T/C (second compound 0.1 µM, first compound 0.0949 µM): 13.1% | viability, T/C (second compound 0.1 µM, first compound 0.3 µM): 1.94% | viability, T/C (second compound 0.1 µM, first compound 0.949 µM): 0.71% | viability, T/C (second compound 0.1 µM, first compound 3 µM): 1.36% | viability, T/C (second compound 0.316 µM, first compound 0.00949 µM): 9.76% | viability, T/C (second compound 0.316 µM, first compound 0.03 µM): 4.11% | viability, T/C (second compound 0.316 µM, first compound 0.0949 µM): 0.34% | viability, T/C (second compound 0.316 µM, first compound 0.3 µM): 0.6% | viability, T/C (second compound 0.316 µM, first compound 0.949 µM): 0.58% | viability, T/C (second compound 0.316 µM, first compound 3 µM): 0.92% | viability, T/C (second compound 1 µM, first compound 0.00949 µM): 1% | viability, T/C (second compound 1 µM, first compound 0.03 µM): 1.1% | viability, T/C (second compound 1 µM, first compound 0.0949 µM): 0.81% | viability, T/C (second compound 1 µM, first compound 0.3 µM): 0.47% | viability, T/C (second compound 1 µM, first compound 0.949 µM): 0.34% | viability, T/C (second compound 1 µM, first compound 3 µM): 3.14% | viability, T/C (second compound 3.16 µM, first compound 0.00949 µM): 1.66% | viability, T/C (second compound 3.16 µM, first compound 0.03 µM): 1.29% | viability, T/C (second compound 3.16 µM, first compound 0.0949 µM): 1.77% | viability, T/C (second compound 3.16 µM, first compound 0.3 µM): 1.67% | viability, T/C (second compound 3.16 µM, first compound 0.949 µM): 1.12% | viability, T/C (second compound 3.16 µM, first compound 3 µM): 1.92% | viability, T/C (second compound 10 µM, first compound 0.00949 µM): 1.29% | viability, T/C (second compound 10 µM, first compound 0.03 µM): 1.77% | viability, T/C (second compound 10 µM, first compound 0.0949 µM): 1.3% | viability, T/C (second compound 10 µM, first compound 0.3 µM): 0.74% | viability, T/C (second compound 10 µM, first compound 0.949 µM): 1.71% | viability, T/C (second compound 10 µM, first compound 3 µM): 1.04%

Nc1ccccc1NC(=O)c1ccc(CNC(=O)OCc2cccnc2)cc1 + CNC(=O)c1ccc(Nc2nc(OC3CCCC3)c3c(-c4ccc5nc(C)oc5c4)c[nH]c3n2)c(OC)c1
IC50 (second compound 0.0316 µM): 3.05 µM | IC50 (second compound 0.1 µM): 2.56 µM | IC50 (second compound 0.316 µM): 1.51 µM | IC50 (second compound 1 µM): 0.0316 µM | IC50 (second compound 3.16 µM): < 0.0316 µM | IC50 (second compound 10 µM): < 0.0316 µM | viability, T/C (second compound 0.0316 µM, first compound 0.0316 µM): 106% | viability, T/C (second compound 0.0316 µM, first compound 0.1 µM): 107% | viability, T/C (second compound 0.0316 µM, first compound 0.316 µM): 93.3% | viability, T/C (second compound 0.0316 µM, first compound 1 µM): 92.9% | viability, T/C (second compound 0.0316 µM, first compound 3.16 µM): 48% | viability, T/C (second compound 0.0316 µM, first compound 10 µM): 11% | viability, T/C (second compound 0.1 µM, first compound 0.0316 µM): 91.9% | viability, T/C (second compound 0.1 µM, first compound 0.1 µM): 96.8% | viability, T/C (second compound 0.1 µM, first compound 0.316 µM): 88% | viability, T/C (second compound 0.1 µM, first compound 1 µM): 104% | viability, T/C (second compound 0.1 µM, first compound 3.16 µM): 39.8% | viability, T/C (second compound 0.1 µM, first compound 10 µM): 4.98% | viability, T/C (second compound 0.316 µM, first compound 0.0316 µM): 53.6% | viability, T/C (second compound 0.316 µM, first compound 0.1 µM): 60.2% | viability, T/C (second compound 0.316 µM, first compound 0.316 µM): 64.2% | viability, T/C (second compound 0.316 µM, first compound 1 µM): 82.2% | viability, T/C (second compound 0.316 µM, first compound 3.16 µM): 23% | viability, T/C (second compound 0.316 µM, first compound 10 µM): 3.58% | viability, T/C (second compound 1 µM, first compound 0.0316 µM): 37.9% | viability, T/C (second compound 1 µM, first compound 0.1 µM): 38.8% | viability, T/C (second compound 1 µM, first compound 0.316 µM): 47.7% | viability, T/C (second compound 1 µM, first compound 1 µM): 54.1% | viability, T/C (second compound 1 µM, first compound 3.16 µM): 16.4% | viability, T/C (second compound 1 µM, first compound 10 µM): 1.52% | viability, T/C (second compound 3.16 µM, first compound 0.0316 µM): 33.7% | viability, T/C (second compound 3.16 µM, first compound 0.1 µM): 38.2% | viability, T/C (second compound 3.16 µM, first compound 0.316 µM): 39% | viability, T/C (second compound 3.16 µM, first compound 1 µM): 41.2% | viability, T/C (second compound 3.16 µM, first compound 3.16 µM): 9.98% | viability, T/C (second compound 3.16 µM, first compound 10 µM): 1.71% | viability, T/C (second compound 10 µM, first compound 0.0316 µM): 38.3% | viability, T/C (second compound 10 µM, first compound 0.1 µM): 32.1% | viability, T/C (second compound 10 µM, first compound 0.316 µM): 35.7% | viability, T/C (second compound 10 µM, first compound 1 µM): 35.3% | viability, T/C (second compound 10 µM, first compound 3.16 µM): 10.1% | viability, T/C (second compound 10 µM, first compound 10 µM): 0.98%
